Marks after values point to notes of the source that are not given here. Square brackets hold non-standard residues; d marks the D form. Ends that are not written are not given here. Tyr(3,5-Br2) = N[C@@H](Cc1cc(Br)c(O)c(Br)c1)C(=O)O; Nle = CCCC[C@H](N)C(=O)O
Experiments:
[1] = system: human gastric carcinoma BGC-823 xenograft; test: nude mice-transplanted human gastric carcinoma BGC-823 xenograft; type: in vivo, BALB/c (nu/nu) nude mice; conditions: 30 days
Protocol: Hunan gastric carcinoma cell line BGC-823 at log phase were adjusted to the concentration of 2×10^7/ml and then inoculated subcutaneously to the back of nude mice (0.1 ml per mouse). The inoculated animals were randomized into groups of CMS024-16 (160 μg/kg/day, 320 μg/kg/day, and 640 μg/kg/day, all at 0.2 ml/day), positive control (5-Fu, 20 mg/kg/day at 0.2 ml/day), and negative control (normal saline, 0.2 ml/day). Administration of test substances by intraperitoneal injection was started on the next day after tumor implantation once per day for 30 continuous days. On the next day after the last injection, the tumor masses were collected and their weights determined Inhibition rate=(Mean weight of negative control−Mean weight of test group)/(Mean weight of negative control)×100%

hepatocarcinoma H22 = test: survival of mice transplanted with H22 hepatocarcinoma; type: in vivo, BALB/c mice; conditions: for survival of mice transplanted with H22 tumor cells: 80 μg/kg/day, vs saline control P<0.05
Protocol: Healthy BALB/c mice were randomized into groups of CMS-024.04, CMS-025.05, CMS-024.14, and CMS-024.16 (80 μg/kg/day), 5-Fu (20 mg/kg/day, once for every two days), saline (0.2 ml/day), and normal group (without tumor cell inoculation).
Mice inoculated with hepatocarcinomas for 6-8 days were sacrificed. The ascites was collected and the cell concentration adjusted to 5×10^7/ml with D-Hanks' solution. 0.2 ml of this was inoculated intraperitoneally to each BALB/c mouse except for the normal controls.
Administration of test substance was started on the next day after the tumor cell inoculation. The peptides and saline were applied daily and 5-FU once every two days for 60 continuous days or until the death of the mice.
The time of death was recorded and survival time prolongation calculated. Survival time prolongation was calculated as below: Survival prolongation (%)=(Average survival days of test group)−(Average survival days of saline control group)/(Average survival days of saline group)×100%.

[2] = system: Balb/c mice swimming time model; test: exhaustive swimming time of mice (Example 11); type: in vivo
Protocol: Balb/c male mice were randomized into groups of CMS-001.30 (20 μg/kg/day), CMS-001.31 (20 μg/kg/day), EPO (1000 u/kg/day, three times per week), and saline control. The test substance was dissolved in 0.5 ml saline and applied intraperitoneally once per day for 30 continuous days (EPO was replaced with saline if EPO was not applied). On the tenth day, the mice were trained to swim for 10 min at water temperature of 25±1° C. 30 min after the last test substance administration, the mice were placed to swim in the swimming tank (50 cm×50 cm×40 cm). The depth of water was 30 cm and water temperature 25±1° C. The limbs of the mice were kept moving in the whole process. The swimming (min) time of the mice until death was recorded. Exhaustive swimming time extension rate (ESTR) (%)=(Mean exhaustive swimming time of test group−Mean exhaustive swimming time of saline control)/(Mean exhaustive swimming time of saline control)×100%. 1.4 Statisitics

BALB/c mice [3] = test: liver glycogen level of mice; type: in vivo
Protocol: The mice were randomized into groups of CMS-001 (20 μg/kg/day, 5 μg/kg/day), CMS-008 (500 μg/kg/day, 125 μg/kg/day), and saline control. The test substance was administered by intraperitoneal injection once per day for 30 continuous days. A week after the start the of the test substance administration, the mice were trained to swim for 10 min, at water temperature of 25±1° C. 30 min after the last injection, the mice were killed by cervical dislocation and the liver was dissected, washed with saline, and blotted dry with filter paper. About 100 mg liver was accurately weighed and the liver glycogen level was determined by the Anthracene Ketone reagent kit. Glycogen weight (mg) in every 100 g of liver=DU/DS×0.5×homogenization liquid vol./liver weight(g)×100×0.9.

BALB/c mice [4] = test: blood lactic acid level of mice after exercise; type: in vivo; conditions: for Lactic acid elimination after rest: 20 min rest
Protocol: (§1) The mice were randomized into groups of CMS-001 (20 μg/kg/day, 5 μg/kg/day), CMS-008 (500 μg/kg/day, 125 μg/kg/day), and saline control. The test substance was administered by intraperitoneal injection once per day for 30 continuous days. A week after the start the of the test substance administration, the mice were trained to swim for 10 min, at water temperature of 25±1° C.
30 min after the last injection, 20 μl of blood was first collected from the orbital sinus. The mice were then weighed, and lead pieces corresponding to 4% of the body weight were wrapped to the tails of the mice at about 1 cm away from the body. The mice were placed to swim in the swimming tank for 10 min, at water depth of 30 cm and temperature of 30±1° C. The limbs of the mice were kept moving in the whole process. Immediately after the exercise and after resting for 20 min, 20 μl of blood was collected from the orbital sinus again. The blood was added into 40 μl hypotonic buffer and sonicated. Lactic acid level in the blood was determined by the lactic acid analyzer.
The amount of lactic acid increase after exercise is calculated based on the amount of lactic acid level immediately after exercise minus the lactic acid level before exercise.
The amount of lactic acid elimination after rest was calculated based on the amount of lactic acid level immediately after exercise minus the lactic acid level after rest.

[5] = system: BALB/c mice exhaustive swimming model; test: exhaustive swimming time of mice; type: in vivo; conditions: 30 days
Protocol: as §1
30 min after the last injection, the mice were weighed, and lead pieces corresponding to 5% of the body weight were wrapped to the tails of the mice at about 1 cm away from the body. The mice were placed in the swimming tank, at water depth of 30 cm and temperature of 25±1° C. The limbs of the mice were kept moving in the whole process. The time of swimming until the death was recorded.

BALB/c mice [6] = test: serum urea nitrogen level after exercise; type: in vivo
Protocol: as §1, with “C. 30 min after the last injection, the mice were placed to swim in the swimming tank without addition of weight for 90 min, at water depth of 30 cm temperature of 30±1° C. The mice were then allowed to rest for 30 min, and blood was collected from the orbital sinus. The serum was isolated and the BUN was determined by a fully automated Biochemistry Analyser.” for “C.”

BALB/c mice [7] = test: serum SOD, MDA, AST, ALT levels after exhaustive exercise; type: in vivo
Protocol: The mice were randomized into groups of CMS-001 (20 μg/kg/day, 5 μg/kg/day), CMS-008 (500 μg/kg/day, 125 μg/kg/day), and saline control. The test substance was administered by intraperitoneal injection once per day for 30 continuous days. A week after the start the of the test substance administration, the mice were trained to swim for 10 min, at water temperature of 25±1° C. 30 min after the last injection, the mice were placed to swim in the swimming tank without addition of weight at water depth of 30 cm and temperature of 25±1° C.^[4]. By the first time the mice sunk, the mice were rescued and blood was collected from the orbital sinus immediately. The serum was isolated and the MDA, SOD, AST, and ALT levels determined.

[8] = Table 6.1 experiment, 20 mg/kg once every two days
[9] = Table 6.2 experiment, 20 mg/kg once every two days
[10] = Table 6.2 experiment, 80 μg/kg daily i.p.
[11] = 1000 u/kg/day, 3 times per week
[12] = Table 6.1 experiment, 80 μg/kg daily i.p.

## O=c1[nH]cc(F)c(=O)[nH]1 [5-Fu, 5-fluorouracil, reference compound]
[1]; 20 mg/Kg/day i.p.
  Inhibition rate: 40.8* %
  Tumor weight: 1.70 ± 0.70 g
Hepatocarcinoma H22; [8]
  Survival Prolongation: 84.5* %
  Survival time (first column): 30.0 ± 2.0 days
  Survival time (second column): 32.5 ± 6.3 days
Hepatocarcinoma H22; [9]
  Survival Prolongation: 33.3%
  Survival time (first column): 18.0 ± 0.4 days
  Survival time (second column): 24.5 ± 11.1 days

## (3,5-dibromo-Tyr)-Ser-Leu ([Tyr(3,5-Br2)]-Ser-Leu) [CMS-024.14]
Hepatocarcinoma H22
  survival of mice transplanted with H22 tumor cells: prolong the survival
Hepatocarcinoma H22; [10]
  Survival Prolongation: 50.3%
  Survival time (first column): 16.0 ± 0.0 days
  Survival time (second column): 27.6 ± 8.5 days

## Erythropoietin [EPO, reference compound]
[2]; [11]
  ESTR (exhaustive swimming time extension rate): 31.3* %
  Swimming time: 126.1 ± 20.4 min

## KAVGHLDDLPGAL [CMS-008]
BALB/c mice [3]; 125 μg/kg/day
  liver glycogen: 1275 ± 726 mg/100 g liver tissue
BALB/c mice [3]; 500 μg/kg/day
  liver glycogen: 1408 ± 457 mg/100 g liver tissue
BALB/c mice [4]; 125 μg/kg/day
  Lactic acid increase after exercise: 2.70 ± 0.15 mmol/L
  Lactic acid elimination after rest: 3.62 ± 0.57 mmol/L
BALB/c mice [4]; 500 μg/kg/day
  Lactic acid increase after exercise: 2.23 ± 0.30 mmol/L
  Lactic acid elimination after rest: 3.71 ± 0.22 mmol/L
[5]; 125 μg/kg/day i.p.
  Swimming time: 106.5 ± 19.4 min
  Swimming-time extension: 57.9* %
[5]; 500 μg/kg/day i.p.
  Swimming time: 116.5 ± 17.7 min
  Swimming-time extension: 72.7* %
BALB/c mice [6]; 125 μg/kg/day
  Urea Nitrogen: 7.2 ± 2.3 mmol/L
BALB/c mice [6]; 500 μg/kg/day
  Urea Nitrogen: 7.1 ± 2.0 mmol/L
BALB/c mice [7]; 500 μg/kg/day
  ALT: 32.9 ± 5.2 U/L
  AST: 116.6 ± 18.8 U/L
  MDA: 4.1 ± 0.4 nmol/L
  SOD: 415.7 ± 31.5 U/ml

## Leu-Tyr-Ser (LYS; Synthetically prepared peptide sequence) [CMS-024.16]
[1]; 160 μg/Kg/day i.p.
  Inhibition rate: 54.0* %
  Tumor weight: 1.32 ± 0.68 g
[1]; 320 μg/Kg/day i.p.
  Inhibition rate: 44.7* %
  Tumor weight: 1.59 ± 1.017 g
[1]; 640 μg/Kg/day i.p.
  Inhibition rate: 54.4* %
  Tumor weight: 1.31 ± 0.77 g
Hepatocarcinoma H22
  survival of mice transplanted with H22 tumor cells: prolong the survival
Hepatocarcinoma H22; [10]
  Survival Prolongation: 57.8%
  Survival time (first column): 18.0 ± 1.0 days
  Survival time (second column): 29.0 ± 7.9 days

## PTTKTY [CMS-001.30]
[2]; 20 μg/kg/day i.p., 30 days
  ESTR (exhaustive swimming time extension rate): 88.3* %

## PTTKTYFP [CMS-001.31]
[2]; 20 μg/kg/day i.p., 30 days
  ESTR (exhaustive swimming time extension rate): 76.0* %

## PTTKTYFPHF [CMS-001]
BALB/c mice [3]; 5 μg/kg/day
  liver glycogen: 439 ± 271 mg/100 g liver tissue
BALB/c mice [3]; 20 μg/kg/day
  liver glycogen: 1567 ± 604 mg/100 g liver tissue
BALB/c mice [4]; 5 μg/kg/day
  Lactic acid increase after exercise: 2.60 ± 0.33 mmol/L
  Lactic acid elimination after rest: 2.96 ± 0.33 mmol/L
BALB/c mice [4]; 20 μg/kg/day
  Lactic acid increase after exercise: 2.56 ± 0.41 mmol/L
  Lactic acid elimination after rest: 3.14 ± 0.64 mmol/L
[5]; 5 μg/kg/day i.p.
  Swimming time: 105.7 ± 19.8 min
  Swimming-time extension: 56.7* %
[5]; 20 μg/kg/day i.p.
  Swimming time: 99.8 ± 30.6 min
  Swimming-time extension: 48.0* %
BALB/c mice [6]; 5 μg/kg/day
  Urea Nitrogen: 6.9 ± 1.6 mmol/L
BALB/c mice [6]; 20 μg/kg/day
  Urea Nitrogen: 7.3 ± 2.1 mmol/L
BALB/c mice [7]; 20 μg/kg/day
  ALT: 32.7 ± 3.0 U/L
  AST: 117.0 ± 19.2 U/L
  MDA: 4.4 ± 0.2 nmol/L
  SOD: 400.6 ± 45.6 U/ml

## Tyr-Ser-Nle (Tyr-Ser-[Nle]) [CMS-024.04, Nle = norleucine (2-aminohexanoic acid)]
Hepatocarcinoma H22
  survival of mice transplanted with H22 tumor cells: prolong the survival
Hepatocarcinoma H22; [12]
  Survival Prolongation: 15.8* %
  Survival time (first column): 19.0 ± 0.9 days
  Survival time (second column): 20.2 ± 4.4 days

## Tyr-Thr-Val (YTV; Synthetically prepared peptide sequence) [CMS-024.05]
Hepatocarcinoma H22
  survival of mice transplanted with H22 tumor cells: prolong the survival
Hepatocarcinoma H22; [12]
  Survival Prolongation: 10.4* %
  Survival time (first column): 19.0 ± 1.0 days
  Survival time (second column): 19.3 ± 2.4 days
